Test results from the supplement of paper PMC13380429.

Experiments:
Conditions in all cases: 72 h
Calu-3 [1] = test: cell viability relative to DMSO; higher = less toxic
Vero E6 [2] = test: as above
Calu-3 [3] = test: drug sensitivity score (DSS) for viability; higher = more toxic; extreme values may be limits of the assay
Vero E6 [4] = test: as above
Calu-3 [5] = test: relative viability EC50 (midpoint between 100% and the lowest measured viability); higher = less toxic
Vero E6 [6] = test: as above
HepG2 [7] = test: drug sensitivity score (DSS) for viability; higher = more toxic; extreme values may be limits of the assay
U2OS [8] = test: as above
Caco-2 [9] = test: cell viability relative to DMSO; higher = less toxic
HepG2 [10] = test: as above
U2OS [11] = test: as above
Caco-2 [12] = test: drug sensitivity score (DSS) for viability; higher = more toxic; extreme values may be limits of the assay
HepG2 [13] = test: relative viability EC50 (midpoint between 100% and the lowest measured viability); higher = less toxic
U2OS [14] = test: as above

COc1cc(C=O)c([N+](=O)[O-])cc1OC [DMNB]
cell viability (Calu-3 [1]; 1 nM): 102% | cell viability (Calu-3 [1]; 10 nM): 102% | cell viability (Calu-3 [1]; 100 nM): 103% | cell viability (Calu-3 [1]; 1000 nM): 96.9% | cell viability (Calu-3 [1]; 10000 nM): 107% | cell viability (Vero E6 [2]; 1 nM): 103% | cell viability (Vero E6 [2]; 10 nM): 100% | cell viability (Vero E6 [2]; 100 nM): 99.2% | cell viability (Vero E6 [2]; 1000 nM): 96.9% | cell viability (Vero E6 [2]; 10000 nM): 96.6% | drug sensitivity score (Calu-3 [3]): 0 | drug sensitivity score (Vero E6 [4]): 0 | relative viability EC50 (Calu-3 [5]): > 10 µM | relative viability EC50 (Vero E6 [6]): > 10 µM

CC(=O)c1ccc2c(c1)C(=O)C1(CC1)O2 [spizofurone]
drug sensitivity score (HepG2 [7]): 0 | drug sensitivity score (Calu-3 [3]): 0 | drug sensitivity score (Vero E6 [4]): 0 | drug sensitivity score (U2OS [8]): 0

COc1ccc(-n2nc(CCC(=O)N(C)O)cc2-c2ccc(Cl)cc2)cc1 [tepoxalin]
cell viability (Caco-2 [9]; 1 nM): 103% | cell viability (Caco-2 [9]; 10 nM): 112% | cell viability (Caco-2 [9]; 100 nM): 116% | cell viability (Caco-2 [9]; 1000 nM): 99.4% | cell viability (Caco-2 [9]; 10000 nM): 59.8% | cell viability (HepG2 [10]; 1 nM): 107% | cell viability (HepG2 [10]; 10 nM): 106% | cell viability (HepG2 [10]; 100 nM): 96.4% | cell viability (HepG2 [10]; 1000 nM): 96.6% | cell viability (HepG2 [10]; 10000 nM): 73.8% | cell viability (Calu-3 [1]; 1 nM): 97.5% | cell viability (Calu-3 [1]; 10 nM): 110% | cell viability (Calu-3 [1]; 100 nM): 102% | cell viability (Calu-3 [1]; 1000 nM): 106% | cell viability (Calu-3 [1]; 10000 nM): 110% | cell viability (Vero E6 [2]; 1 nM): 98.2% | cell viability (Vero E6 [2]; 10 nM): 99.9% | cell viability (Vero E6 [2]; 100 nM): 99.5% | cell viability (Vero E6 [2]; 1000 nM): 99.9% | cell viability (Vero E6 [2]; 10000 nM): 64.7% | cell viability (U2OS [11]; 1 nM): 97.1% | cell viability (U2OS [11]; 10 nM): 95.7% | cell viability (U2OS [11]; 100 nM): 96.7% | cell viability (U2OS [11]; 1000 nM): 94.6% | cell viability (U2OS [11]; 10000 nM): 61.8% | drug sensitivity score (Caco-2 [12]): 2.1 | drug sensitivity score (HepG2 [7]): 1.6 | drug sensitivity score (Calu-3 [3]): 0 | drug sensitivity score (Vero E6 [4]): 1.7 | drug sensitivity score (U2OS [8]): 2.8 | relative viability EC50 (Calu-3 [5]): > 10 µM

CC(C)NC(=O)N1CC[C@H](NC2=Nc3cc(F)ccc3N(CC(F)F)c3ccc(Cl)cc32)C1 [NVS-PAK1-1]
cell viability (Caco-2 [9]; 1 nM): 84.8% | cell viability (Caco-2 [9]; 10 nM): 120% | cell viability (Caco-2 [9]; 100 nM): 90.9% | cell viability (Caco-2 [9]; 1000 nM): 110% | cell viability (Caco-2 [9]; 10000 nM): 56.4% | cell viability (HepG2 [10]; 1 nM): 108% | cell viability (HepG2 [10]; 10 nM): 104% | cell viability (HepG2 [10]; 100 nM): 93.6% | cell viability (HepG2 [10]; 1000 nM): 97.3% | cell viability (HepG2 [10]; 10000 nM): 93.4% | cell viability (Calu-3 [1]; 1 nM): 103% | cell viability (Calu-3 [1]; 10 nM): 112% | cell viability (Calu-3 [1]; 100 nM): 91.9% | cell viability (Calu-3 [1]; 1000 nM): 90% | cell viability (Calu-3 [1]; 10000 nM): 44.8% | cell viability (Vero E6 [2]; 1 nM): 99.8% | cell viability (Vero E6 [2]; 10 nM): 101% | cell viability (Vero E6 [2]; 100 nM): 108% | cell viability (Vero E6 [2]; 1000 nM): 92.3% | cell viability (Vero E6 [2]; 10000 nM): 31.4% | cell viability (U2OS [11]; 1 nM): 104% | cell viability (U2OS [11]; 10 nM): 104% | cell viability (U2OS [11]; 100 nM): 98.7% | cell viability (U2OS [11]; 1000 nM): 93.4% | cell viability (U2OS [11]; 10000 nM): 51.3% | drug sensitivity score (Caco-2 [12]): 1.7 | drug sensitivity score (HepG2 [7]): 0 | drug sensitivity score (Calu-3 [3]): 4.6 | drug sensitivity score (Vero E6 [4]): 5 | drug sensitivity score (U2OS [8]): 3.7 | relative viability EC50 (HepG2 [13]): > 10 µM | relative viability EC50 (Calu-3 [5]): 1.82 µM | relative viability EC50 (Vero E6 [6]): 2.24 µM

Oc1ccc([C@H]2COc3cc(O)ccc3C2)cc1 [equol]
cell viability (HepG2 [10]; 1 nM): 94.2% | cell viability (HepG2 [10]; 10 nM): 105% | cell viability (HepG2 [10]; 100 nM): 110% | cell viability (HepG2 [10]; 1000 nM): 94.8% | cell viability (HepG2 [10]; 10000 nM): 97.3% | cell viability (Calu-3 [1]; 1 nM): 97.2% | cell viability (Calu-3 [1]; 10 nM): 111% | cell viability (Calu-3 [1]; 100 nM): 99.2% | cell viability (Calu-3 [1]; 1000 nM): 92.6% | cell viability (Calu-3 [1]; 10000 nM): 91.2% | cell viability (Vero E6 [2]; 1 nM): 98.6% | cell viability (Vero E6 [2]; 10 nM): 102% | cell viability (Vero E6 [2]; 100 nM): 96.2% | cell viability (Vero E6 [2]; 1000 nM): 95.5% | cell viability (Vero E6 [2]; 10000 nM): 96.6% | cell viability (U2OS [11]; 1 nM): 98.5% | cell viability (U2OS [11]; 10 nM): 103% | cell viability (U2OS [11]; 100 nM): 97.9% | cell viability (U2OS [11]; 1000 nM): 102% | cell viability (U2OS [11]; 10000 nM): 99.6% | drug sensitivity score (HepG2 [7]): 0 | drug sensitivity score (Calu-3 [3]): 0 | drug sensitivity score (Vero E6 [4]): 0 | drug sensitivity score (U2OS [8]): 0 | relative viability EC50 (HepG2 [13]): > 10 µM | relative viability EC50 (Calu-3 [5]): > 10 µM | relative viability EC50 (Vero E6 [6]): > 10 µM | relative viability EC50 (U2OS [14]): > 10 µM

c1ccc(-c2cnn3cc(-c4ccc(OCCN5CCOCC5)cc4)cnc23)cc1 [DMH4]
cell viability (Caco-2 [9]; 1 nM): 105% | cell viability (Caco-2 [9]; 10 nM): 97.9% | cell viability (Caco-2 [9]; 100 nM): 93.6% | cell viability (Caco-2 [9]; 1000 nM): 96.1% | cell viability (Caco-2 [9]; 10000 nM): 74.3% | cell viability (HepG2 [10]; 1 nM): 96.4% | cell viability (HepG2 [10]; 10 nM): 95.1% | cell viability (HepG2 [10]; 100 nM): 98.2% | cell viability (HepG2 [10]; 1000 nM): 91.5% | cell viability (HepG2 [10]; 10000 nM): 50.7% | cell viability (Calu-3 [1]; 1 nM): 101% | cell viability (Calu-3 [1]; 10 nM): 107% | cell viability (Calu-3 [1]; 100 nM): 89.6% | cell viability (Calu-3 [1]; 1000 nM): 114% | cell viability (Calu-3 [1]; 10000 nM): 85.9% | cell viability (Vero E6 [2]; 1 nM): 97.1% | cell viability (Vero E6 [2]; 10 nM): 101% | cell viability (Vero E6 [2]; 100 nM): 101% | cell viability (Vero E6 [2]; 1000 nM): 91.4% | cell viability (Vero E6 [2]; 10000 nM): 104% | cell viability (U2OS [11]; 1 nM): 102% | cell viability (U2OS [11]; 10 nM): 101% | cell viability (U2OS [11]; 100 nM): 99.6% | cell viability (U2OS [11]; 1000 nM): 98.6% | cell viability (U2OS [11]; 10000 nM): 80.8% | drug sensitivity score (Caco-2 [12]): 1.6 | drug sensitivity score (HepG2 [7]): 4 | drug sensitivity score (Calu-3 [3]): 0 | drug sensitivity score (Vero E6 [4]): 0 | drug sensitivity score (U2OS [8]): 0.7 | relative viability EC50 (Calu-3 [5]): > 10 µM | relative viability EC50 (Vero E6 [6]): > 10 µM | relative viability EC50 (U2OS [14]): > 10 µM

O=C1C2CCN(CC2)C1(CO)CO [PRIMA1]
cell viability (Caco-2 [9]; 1 nM): 95.1% | cell viability (Caco-2 [9]; 10 nM): 91.6% | cell viability (Caco-2 [9]; 100 nM): 102% | cell viability (Caco-2 [9]; 1000 nM): 96.3% | cell viability (Caco-2 [9]; 10000 nM): 66.9% | cell viability (HepG2 [10]; 1 nM): 94.5% | cell viability (HepG2 [10]; 10 nM): 97.6% | cell viability (HepG2 [10]; 100 nM): 81% | cell viability (HepG2 [10]; 1000 nM): 97.9% | cell viability (HepG2 [10]; 10000 nM): 104% | cell viability (Calu-3 [1]; 1 nM): 105% | cell viability (Calu-3 [1]; 10 nM): 99% | cell viability (Calu-3 [1]; 100 nM): 103% | cell viability (Calu-3 [1]; 1000 nM): 87.6% | cell viability (Calu-3 [1]; 10000 nM): 95.7% | cell viability (Vero E6 [2]; 1 nM): 87% | cell viability (Vero E6 [2]; 10 nM): 92.6% | cell viability (Vero E6 [2]; 100 nM): 89.6% | cell viability (Vero E6 [2]; 1000 nM): 94.2% | cell viability (Vero E6 [2]; 10000 nM): 99.5% | cell viability (U2OS [11]; 1 nM): 98.8% | cell viability (U2OS [11]; 10 nM): 95.7% | cell viability (U2OS [11]; 100 nM): 101% | cell viability (U2OS [11]; 1000 nM): 98.1% | cell viability (U2OS [11]; 10000 nM): 70% | drug sensitivity score (Caco-2 [12]): 2.1 | drug sensitivity score (HepG2 [7]): 0 | drug sensitivity score (Calu-3 [3]): 0.6 | drug sensitivity score (Vero E6 [4]): 0 | drug sensitivity score (U2OS [8]): 1.6 | relative viability EC50 (HepG2 [13]): > 10 µM | relative viability EC50 (Calu-3 [5]): > 10 µM | relative viability EC50 (Vero E6 [6]): > 10 µM

CCCCCS(=O)(=O)CCCCCCCCCCn1c(-c2ccc(O)cc2)c(C)c2cc(O)ccc21
cell viability (Caco-2 [9]; 1 nM): 86.2% | cell viability (Caco-2 [9]; 10 nM): 98.7% | cell viability (Caco-2 [9]; 100 nM): 97.7% | cell viability (Caco-2 [9]; 1000 nM): 96.8% | cell viability (Caco-2 [9]; 10000 nM): 55.5% | cell viability (HepG2 [10]; 1 nM): 104% | cell viability (HepG2 [10]; 10 nM): 92.3% | cell viability (HepG2 [10]; 100 nM): 98.5% | cell viability (HepG2 [10]; 1000 nM): 96.6% | cell viability (HepG2 [10]; 10000 nM): 33.8% | cell viability (Calu-3 [1]; 1 nM): 101% | cell viability (Calu-3 [1]; 10 nM): 98.3% | cell viability (Calu-3 [1]; 100 nM): 100% | cell viability (Calu-3 [1]; 1000 nM): 106% | cell viability (Calu-3 [1]; 10000 nM): 76.5% | cell viability (Vero E6 [2]; 1 nM): 95% | cell viability (Vero E6 [2]; 10 nM): 99.3% | cell viability (Vero E6 [2]; 100 nM): 100% | cell viability (Vero E6 [2]; 1000 nM): 98.1% | cell viability (Vero E6 [2]; 10000 nM): 77.6% | cell viability (U2OS [11]; 1 nM): 99.2% | cell viability (U2OS [11]; 10 nM): 96.6% | cell viability (U2OS [11]; 100 nM): 100% | cell viability (U2OS [11]; 1000 nM): 101% | cell viability (U2OS [11]; 10000 nM): 91.5% | drug sensitivity score (Caco-2 [12]): 2.8 | drug sensitivity score (HepG2 [7]): 4.1 | drug sensitivity score (Calu-3 [3]): 0.6 | drug sensitivity score (Vero E6 [4]): 1 | drug sensitivity score (U2OS [8]): 0 | relative viability EC50 (HepG2 [13]): 2.77 µM | relative viability EC50 (Calu-3 [5]): > 10 µM | relative viability EC50 (Vero E6 [6]): > 10 µM | relative viability EC50 (U2OS [14]): > 10 µM
